Measured values as given in ChEMBL document CHEMBL1151743, “Dual inhibitors of matrix metalloproteinases and carbonic anhydrases: iminodiacetyl-based hydroxamate-benzenesulfonamide conjugates” (J Med Chem, 2008).

Experiments:
[1] = target: 72 kDa type IV collagenase (Homo sapiens, UniProt P08253); assay: Inhibition of human recombinant MMP2 transfected in mouse melanoma cells; format: cell-based
[2] = target: Matrix metalloproteinase-16 (Homo sapiens, UniProt P51512); assay: Inhibition of MMP16
Matrix metalloproteinase-16, sequence (P51512 whole entry, the tested form may be a part): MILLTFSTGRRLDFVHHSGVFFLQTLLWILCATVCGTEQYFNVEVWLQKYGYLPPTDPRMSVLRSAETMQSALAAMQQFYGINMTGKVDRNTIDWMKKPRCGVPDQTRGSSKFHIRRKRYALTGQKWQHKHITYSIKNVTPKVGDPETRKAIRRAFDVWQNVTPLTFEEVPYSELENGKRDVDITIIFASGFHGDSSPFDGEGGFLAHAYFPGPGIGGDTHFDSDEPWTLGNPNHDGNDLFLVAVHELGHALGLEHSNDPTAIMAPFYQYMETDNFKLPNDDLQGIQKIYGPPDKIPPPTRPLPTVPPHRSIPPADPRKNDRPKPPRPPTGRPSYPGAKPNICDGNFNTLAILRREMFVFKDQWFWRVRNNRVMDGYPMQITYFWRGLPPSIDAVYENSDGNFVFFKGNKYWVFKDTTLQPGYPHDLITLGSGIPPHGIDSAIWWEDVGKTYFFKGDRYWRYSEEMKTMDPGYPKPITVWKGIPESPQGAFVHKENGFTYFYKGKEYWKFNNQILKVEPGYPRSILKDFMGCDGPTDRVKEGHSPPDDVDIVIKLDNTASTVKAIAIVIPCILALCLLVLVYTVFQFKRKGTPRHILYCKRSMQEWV

Carbonic anhydrase 9 = Carbonic anhydrase 9 (Homo sapiens, UniProt Q16790); assay: Inhibition of human recombinant CA9 catalytic domain by stopped-flow CO2 hydrase assay
[3] = target: Matrix metalloproteinase-9 (Homo sapiens, UniProt P14780); assay: Inhibition of MMP9
Matrix metalloproteinase-9, sequence (P14780 whole entry): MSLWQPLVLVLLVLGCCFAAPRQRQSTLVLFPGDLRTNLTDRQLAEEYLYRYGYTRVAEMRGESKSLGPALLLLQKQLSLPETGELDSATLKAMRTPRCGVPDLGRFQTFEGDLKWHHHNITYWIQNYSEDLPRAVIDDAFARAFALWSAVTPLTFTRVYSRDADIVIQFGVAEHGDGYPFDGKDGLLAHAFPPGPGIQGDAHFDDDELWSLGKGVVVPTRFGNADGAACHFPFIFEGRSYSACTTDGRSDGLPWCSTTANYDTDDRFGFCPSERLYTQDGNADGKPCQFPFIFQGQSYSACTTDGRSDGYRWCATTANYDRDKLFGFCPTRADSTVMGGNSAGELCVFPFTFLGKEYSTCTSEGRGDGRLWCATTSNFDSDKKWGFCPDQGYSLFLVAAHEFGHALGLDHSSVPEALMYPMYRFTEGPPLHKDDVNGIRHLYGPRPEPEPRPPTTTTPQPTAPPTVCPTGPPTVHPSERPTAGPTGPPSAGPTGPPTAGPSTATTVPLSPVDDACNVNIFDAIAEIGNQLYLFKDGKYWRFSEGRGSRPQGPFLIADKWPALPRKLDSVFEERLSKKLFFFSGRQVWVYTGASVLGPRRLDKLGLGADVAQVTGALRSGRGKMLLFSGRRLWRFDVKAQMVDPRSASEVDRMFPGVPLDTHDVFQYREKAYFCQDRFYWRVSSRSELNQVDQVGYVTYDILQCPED

Carbonic anhydrase 1 = Carbonic anhydrase 1 (Homo sapiens, UniProt P00915)
Carbonic anhydrase 1, sequence (P00915 whole entry): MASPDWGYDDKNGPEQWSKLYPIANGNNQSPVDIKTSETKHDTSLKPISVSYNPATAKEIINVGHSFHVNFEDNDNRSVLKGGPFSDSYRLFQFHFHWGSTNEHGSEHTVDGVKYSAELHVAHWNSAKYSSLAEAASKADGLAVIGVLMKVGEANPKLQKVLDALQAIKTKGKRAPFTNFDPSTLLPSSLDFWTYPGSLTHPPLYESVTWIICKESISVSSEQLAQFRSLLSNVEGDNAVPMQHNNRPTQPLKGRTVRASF
Description: Inhibition of human recombinant CA1 by stopped-flow CO2 hydrase assay

[4] = target: Matrix metalloproteinase-14 (Homo sapiens, UniProt P50281); assay: Inhibition of MMP14
Neutrophil collagenase = Neutrophil collagenase (Homo sapiens, UniProt P22894); assay: Inhibition of MMP8
Neutrophil collagenase, sequence (P22894 whole entry): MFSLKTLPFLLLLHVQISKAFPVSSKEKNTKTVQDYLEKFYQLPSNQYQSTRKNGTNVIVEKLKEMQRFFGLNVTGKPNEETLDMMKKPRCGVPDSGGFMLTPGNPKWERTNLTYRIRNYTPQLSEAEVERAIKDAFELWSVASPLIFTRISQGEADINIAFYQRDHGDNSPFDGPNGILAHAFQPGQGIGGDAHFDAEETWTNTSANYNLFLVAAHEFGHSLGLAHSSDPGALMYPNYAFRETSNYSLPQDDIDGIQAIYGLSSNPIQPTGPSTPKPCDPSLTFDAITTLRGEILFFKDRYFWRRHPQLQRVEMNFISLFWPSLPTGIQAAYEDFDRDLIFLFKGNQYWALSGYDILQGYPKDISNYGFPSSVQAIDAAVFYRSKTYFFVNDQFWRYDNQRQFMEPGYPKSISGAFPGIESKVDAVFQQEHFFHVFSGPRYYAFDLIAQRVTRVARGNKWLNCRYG

Interstitial collagenase = target: T1, Interstitial collagenase (Homo sapiens, UniProt P03956); assay: Inhibition of MMP1
T1 sequence (P03956 whole entry): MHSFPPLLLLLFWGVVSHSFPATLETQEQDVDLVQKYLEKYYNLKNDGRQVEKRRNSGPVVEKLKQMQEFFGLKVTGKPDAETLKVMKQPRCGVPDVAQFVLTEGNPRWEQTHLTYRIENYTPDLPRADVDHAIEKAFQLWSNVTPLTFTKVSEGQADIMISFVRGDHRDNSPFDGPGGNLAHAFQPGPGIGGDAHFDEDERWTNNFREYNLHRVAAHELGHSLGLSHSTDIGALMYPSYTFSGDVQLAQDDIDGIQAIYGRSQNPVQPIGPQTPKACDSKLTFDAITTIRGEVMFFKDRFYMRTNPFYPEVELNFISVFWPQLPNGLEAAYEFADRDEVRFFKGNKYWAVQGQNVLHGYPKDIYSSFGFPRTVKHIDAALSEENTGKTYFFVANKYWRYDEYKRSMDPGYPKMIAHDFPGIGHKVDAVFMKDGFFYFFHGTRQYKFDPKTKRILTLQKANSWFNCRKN

[5] = target: Disintegrin and metalloproteinase domain-containing protein 17 (Homo sapiens, UniProt P78536); assay: Inhibition of TACE
Disintegrin and metalloproteinase domain-containing protein 17, sequence (P78536 whole entry, the tested form may be a part): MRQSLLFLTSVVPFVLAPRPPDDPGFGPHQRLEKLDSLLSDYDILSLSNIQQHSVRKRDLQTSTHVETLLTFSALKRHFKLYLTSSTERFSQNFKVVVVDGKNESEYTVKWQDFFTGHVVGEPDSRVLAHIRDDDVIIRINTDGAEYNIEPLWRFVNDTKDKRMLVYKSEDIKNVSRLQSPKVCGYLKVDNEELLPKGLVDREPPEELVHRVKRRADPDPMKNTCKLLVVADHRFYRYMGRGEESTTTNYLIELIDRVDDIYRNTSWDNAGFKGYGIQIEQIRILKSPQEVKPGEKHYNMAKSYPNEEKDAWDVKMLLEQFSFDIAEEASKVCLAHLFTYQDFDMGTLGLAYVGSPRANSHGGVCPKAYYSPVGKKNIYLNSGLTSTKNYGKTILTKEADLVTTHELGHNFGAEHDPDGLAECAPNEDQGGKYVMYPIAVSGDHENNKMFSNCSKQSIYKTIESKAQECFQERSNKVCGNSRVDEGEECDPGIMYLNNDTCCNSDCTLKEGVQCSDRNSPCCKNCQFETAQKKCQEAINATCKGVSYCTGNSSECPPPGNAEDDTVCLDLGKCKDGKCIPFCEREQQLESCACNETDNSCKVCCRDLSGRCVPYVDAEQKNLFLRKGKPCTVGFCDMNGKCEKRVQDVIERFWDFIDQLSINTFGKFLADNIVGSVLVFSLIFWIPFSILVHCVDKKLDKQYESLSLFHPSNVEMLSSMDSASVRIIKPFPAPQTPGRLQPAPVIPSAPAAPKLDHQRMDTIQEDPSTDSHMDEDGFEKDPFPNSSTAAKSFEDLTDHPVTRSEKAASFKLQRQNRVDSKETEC

Homo sapiens [6] = organism: Homo sapiens; assay: Selectivity for human recombinant CA9 to human recombinant CA2
Collagenase 3 = Collagenase 3 (Homo sapiens, UniProt P45452)
Carbonic anhydrase 2 = Carbonic anhydrase 2 (Homo sapiens, UniProt P00918)
Description: Inhibition of human recombinant CA2 by stopped-flow CO2 hydrase assay

Homo sapiens [7] = organism: Homo sapiens; assay: Selectivity for human recombinant CA9 to human recombinant CA1

72 kDa type IV collagenase, sequence (P08253 whole entry): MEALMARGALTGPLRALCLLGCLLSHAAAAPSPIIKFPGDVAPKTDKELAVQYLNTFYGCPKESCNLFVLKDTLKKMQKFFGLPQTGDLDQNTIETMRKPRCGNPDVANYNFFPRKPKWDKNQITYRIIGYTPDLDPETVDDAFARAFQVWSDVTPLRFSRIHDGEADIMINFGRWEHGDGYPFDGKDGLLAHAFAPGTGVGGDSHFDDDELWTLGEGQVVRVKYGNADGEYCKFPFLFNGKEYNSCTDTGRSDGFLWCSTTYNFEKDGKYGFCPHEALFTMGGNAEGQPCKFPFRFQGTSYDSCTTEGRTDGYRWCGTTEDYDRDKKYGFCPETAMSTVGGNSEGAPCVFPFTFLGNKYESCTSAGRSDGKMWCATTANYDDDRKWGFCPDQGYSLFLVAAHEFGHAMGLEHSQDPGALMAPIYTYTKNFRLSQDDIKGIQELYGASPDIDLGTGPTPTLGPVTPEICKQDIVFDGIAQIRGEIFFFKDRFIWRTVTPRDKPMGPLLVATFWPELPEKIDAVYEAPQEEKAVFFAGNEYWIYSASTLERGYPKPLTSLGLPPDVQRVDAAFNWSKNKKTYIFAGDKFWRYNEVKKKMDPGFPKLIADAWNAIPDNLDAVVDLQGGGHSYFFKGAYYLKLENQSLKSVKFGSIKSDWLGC

IC50 [1] [nM]	IC50 [2] [nM]	Ki (Carbonic anhydrase 9) [nM]	IC50 [3] [nM]	Ki (Carbonic anhydrase 1) [nM]	IC50 [4] [nM]	IC50 (Neutrophil collagenase) [nM]	IC50 (Interstitial collagenase) [nM]	IC50 [5] [nM]	Selectivity ratio (Homo sapiens [6])	IC50 (Collagenase 3) [nM]	Ki (Carbonic anhydrase 2) [nM]	Selectivity ratio (Homo sapiens [7])	SMILES
25.3	44	13	53.7	1770	89.8	59	532						COc1ccc(S(=O)(=O)N(CC(=O)NO)CC(=O)NCCc2ccc(S(N)(=O)=O)cc2)cc1
> 100000			> 300000	2340	> 100000								NS(=O)(=O)c1ccc(CCNC(=O)CN(CC(=O)NO)Cc2ccccc2)cc1
0.35	0.31	3.3	0.21	730	0.32	0.29	7.8	55	1.3	0.12	4.2		CC(C)[C@H](C(=O)NO)N(CC(=O)NCCc1ccc(S(N)(=O)=O)cc1)S(=O)(=O)c1ccc(Oc2ccccc2)cc1
193	996		322		1690	1010	6770						COc1ccc(S(=O)(=O)N(CC(=O)O)CC(=O)NO)cc1
24.7			27.7		306	4.3	236		1.3			7.9	CC(C)[C@H](C(=O)NO)N(CC(=O)O)S(=O)(=O)c1ccc(-c2ccccc2)cc1
1.57	1		0.51		2.1	0.74	143						NS(=O)(=O)c1ccc(CCNC(=O)CN(CC(=O)NO)S(=O)(=O)c2ccc(Oc3ccccc3)cc2)cc1
145			62		353	29.2	235		1.3			7.9	COc1ccc(S(=O)(=O)N(CC(=O)O)[C@@H](C(=O)NO)C(C)C)cc1
2230		6.4		3430	8950	4360							NS(=O)(=O)c1ccc(CCNC(=O)CN(CC(=O)O)S(=O)(=O)c2ccc(Oc3ccccc3)cc2)cc1
0.5	1.56		0.77		3.9	0.4	59	2290	1.3	0.33		7.9	CC(C)[C@H](C(=O)NO)N(CC(=O)O)S(=O)(=O)c1ccc(Oc2ccccc2)cc1
	6.8												COc1ccc(S(=O)(=O)N(Cc2cccnc2)[C@@H](C(=O)NO)C(C)C)cc1 [CGS-27023A]
16.2	186		66		260	35	542						NS(=O)(=O)c1ccc(CCNC(=O)CN(CC(=O)NO)S(=O)(=O)c2ccc(-c3ccccc3)cc2)cc1
5120		3.8		116	33900	8200							NS(=O)(=O)c1ccc(CCNC(=O)CN(CC(=O)O)S(=O)(=O)c2ccc(-c3ccccc3)cc2)cc1
1.2	11.4		3.2		14	3.7	1530		1.3	1.6		7.9	O=C(O)CN(CC(=O)NO)S(=O)(=O)c1ccc(Oc2ccccc2)cc1
